Here are results for two compounds from patent US6585964B1, “Method for preventing or minimizing biodegradation of a substance” (Biospherics Incorporated, priority 1999, dated 2003).

The test system of experiment [1] is carboxypeptidase. To be noted: compared with the L-enantiomorph, which is hydrolysed; cited from earlier work.
For experiment [2], the system named is sense of smell. The experiment is described as follows: Human smell test of menthol enantiomers evaporated from acetone solution in Petri dishes. The format is in vivo. The settings on record: 0.001M solution in acetone, twenty drops, acetone evaporated at room temperature; six human subjects, test performed twice each. As for the experimental part:
The naturally-occurring optical isomer of menthol (1R,2S,5R)−(−) is used as a fragrance in a variety of products, such as perfumes, gums, and cigarettes. Both the natural and the unnatural (1S,2R,5S)−(+) optical isomer of menthol were obtained in 99% purity. A 0.001M solution of each enantiomer was prepared in reagent grade acetone. The solutions were allowed to equilibrate at room temperature for approximately one hour. Twenty drops of each solution were pipetted into separate glass Petri dishes. All glassware was clean. The acetone was then allowed to evaporate at room temperature. A human subject then smelled the two Petri dishes separately and recorded any sensations. The subject had been instructed to determine the presence of odor in the Petri dishes, and, if odor emanated from each, to determine whether the odors were the same or different. The test was performed twice on each of six human subjects, three female and three male. Each subject was given freshly prepared Petri dish servings to smell, and each immediately recorded his or hers impressions without communicating with the other subjects.

Square brackets hold non-standard residues; d marks the D form. Peptide text beside a SMILES is read from it. * marks the point of attachment. Cbz = O=C(OCc1ccccc1)*

Regarding `O=C(CNC(=O)OCc1ccccc1)N[C@H](Cc1ccccc1)C(=O)O` [carbobenzoxyglycyl-D-phenalalanine] (Cbz-Gly-[dF]-OH), the “action of carboxypeptidase (hydrolysis) on the compound” value in experiment [1] is on record as “no measurable action”.
As for `CC1CC[C@H](C(C)C)[C@@H](O)C1` (stereo partly drawn) [unnatural form of menthol, (1S,2R,5S)-(+)-Menthol], in experiment [2], the “odor the same as or different from the natural form” value is given as “the same as that of the natural form” and the presence of odor entry is on record as “had odor”.
